The values below are quoted from earlier work in patent US9750251B2, “Liquid herbicidal preparations” (BAYER INTELLECTUAL PROPERTY GMBH, priority 2008, dated 2017).

For this series the following is noted: at 25° C.

Converted amounts (≈) assume the structure as drawn.

Consider `CCOC1Oc2ccc(OS(C)(=O)=O)cc2C1(C)C` (racemic) [ethofumesate], for which the water solubility was 50 µg/mL (≈ 175 µM).
